Molecules are shown by their SMILES.

The target of one assay is T1, IDO1 (Homo sapiens, UniProt P14902).
T1 construct: HeLa cells were treated with a test compound in the presence of IFNγ, which induces IDO1 expression; host or cells: H1-HeLa cells, IDO1 induced with IFNγ
T1 sequence (P14902 whole entry): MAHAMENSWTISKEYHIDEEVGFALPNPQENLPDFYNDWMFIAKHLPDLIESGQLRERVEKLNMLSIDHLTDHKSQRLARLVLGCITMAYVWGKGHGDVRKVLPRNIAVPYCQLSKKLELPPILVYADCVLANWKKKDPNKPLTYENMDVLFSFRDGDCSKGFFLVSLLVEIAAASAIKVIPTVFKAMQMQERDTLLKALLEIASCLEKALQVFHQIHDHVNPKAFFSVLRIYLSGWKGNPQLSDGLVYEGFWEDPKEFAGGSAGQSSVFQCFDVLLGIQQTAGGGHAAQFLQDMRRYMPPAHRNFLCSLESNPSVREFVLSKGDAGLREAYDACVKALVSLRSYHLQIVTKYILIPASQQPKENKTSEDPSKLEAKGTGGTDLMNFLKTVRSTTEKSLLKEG
The experiment in a line: Cell-based (HeLa) assay for measurement of IDO1 inhibition (kynurenine levels in supernatant after IFNγ induction). As to conditions: HeLa cells, IFNγ-induced IDO1, kynurenine in supernatant after 48 hour incubation; geometric mean of a minimum of four determinations. The procedure, abridged: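 IDO1 activity is read as kynurenine released into the medium, detected with Ehrlich's reagent (p-dimethylaminobenzaldehyde) at 480 nm after TCA treatment. HeLa cells were exposed 48 h to compounds in 0.5% DMSO alongside IFNγ induction. Values normalized to no-IFNγ and IFNγ controls; four-parameter EC50 given as geometric mean of ≥4 determinations.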
By EC50 is commonly meant the concentration needed to bring the measured effect to its halfway point. The low end stands for higher potency in that assay, the high end for lower potency in that assay. For the compound `O/N=C(\Nc1ccc(F)c(Cl)c1)c1ccc(F)c2nc[nH]c12` [Example 5, N-(3-Chloro-4-fluorophenyl)-4-fluoro-N′-hydroxy-1H-benzo[d]imidazole-7-carboximidamide], the EC50 amounted to 542 nM.

Take `OCCNc1nc2c(F)c(F)cc(/C(=N/O)Nc3ccc(F)c(Cl)c3)c2[nH]1` [Example 295, N-(3-chloro-4-fluorophenyl)-4,5-difluoro-N′-hydroxy-2-((2-hydroxyethyl)amino)-1H-benzo[d]imidazole-7-carboximidamide]: the EC50 amounted to 3260 nM.

As to `O/N=C(\Nc1cccc2ccoc12)c1ccnc2nc[nH]c12` [Example 69, N-(Benzofuran-7-yl)-N′-hydroxy-1H-imidazo[4,5-b]pyridine-7-carboximidamide], the EC50 was found to be 1340 nM.

With `Nc1nc2c(F)c(F)cc(/C(=N/O)Nc3ccc(F)c(Br)c3)c2[nH]1` [Example 14, 2-Amino-N-(3-bromo-4-fluorophenyl)-4,5-difluoro-N′-hydroxy-1H-benzo[d]imidazole-7-carboximidamide], a half-maximal effect (EC50) was put at 494 nM.

`CN(C)CCc1nc2nccc(/C(=N/O)Nc3ccc(F)c(Br)c3)c2[nH]1` [Example 263, N-(3-bromo-4-fluorophenyl)-2-(2-(dimethylamino)ethyl)-N′-hydroxy-1H-imidazo[4,5-b]pyridine-7-carboximidamide] showed an EC50 of 559 nM.

Compound `CC(C)OC(=O)Nc1nc2nccc(/C(=N/O)Nc3ccc(F)c(Cl)c3)c2[nH]1` [Example 159, Isopropyl (7-(N-(3-chloro-4-fluorophenyl)-N′-hydroxycarbamimidoyl)-1H-imidazo[4,5-b]pyridin-2-yl)carbamate] displayed an EC50 of 453 nM.

Take `CC(C)N(C)CCNc1nc2nccc(/C(=N/O)Nc3ccc(F)c(Cl)c3)c2[nH]1` [Example 240, N-(3-chloro-4-fluorophenyl)-N′-hydroxy-2-((2-(isopropyl(methyl)amino)ethyl)amino)-1H-imidazo[4,5-b]pyridine-7-carboximidamide]: the half-maximal effective concentration (EC50) was 590 nM.

`CC(C)NCc1nc2nccc(/C(=N/O)Nc3ccc(F)c(Cl)c3)c2[nH]1` [Example 116, N-(3-Chloro-4-fluorophenyl)-N′-hydroxy-2-((isopropylamino)methyl)-1H-imidazo[4,5-b]pyridine-7-carboximidamide] registered an EC50 of 740 nM.

As for `COCCNc1nc2nccc(C(=NO)Nc3ccc(F)c(Cl)c3)c2[nH]1` [Example 212, N-(3-chloro-4-fluorophenyl)-N′-hydroxy-2-((2-methoxyethyl)amino)-1H-imidazo[4,5-b]pyridine-7-carboximidamide], the EC50 is 876 nM.

Take `O/N=C(\Nc1ccc(F)c(Cl)c1)c1ccnc2nc(CNCc3cnccn3)[nH]c12` [Example 134, N-(3-Chloro-4-fluorophenyl)-N′-hydroxy-2-(((pyrazin-2-ylmethyl)amino)methyl)-1H-imidazo[4,5-b]pyridine-7-carboximidamide]: a half-maximal response (EC50) required 3990 nM.

`CNCCNc1nc2nccc(/C(=N/O)Nc3ccc(F)c(Cl)c3)c2[nH]1` [Example 216, N-(3-chloro-4-fluorophenyl)-N′-hydroxy-2-((2-(methylamino)ethyl)amino)-1H-imidazo[4,5-b]pyridine-7-carboximidamide]: the response was half-maximal at 2010 nM (EC50).

As for `O/N=C(\Nc1ccc(F)c(Cl)c1)c1ccnc2nc(CNCCCN3CCOCC3)[nH]c12` [Example 131, N-(3-Chloro-4-fluorophenyl)-N′-hydroxy-2-(((3-morpholinopropyl)amino)methyl)-1H-imidazo[4,5-b]pyridine-7-carboximidamide], the response was half-maximal at 3020 nM (EC50).

For `O=C1CCCN1CCNc1nc2nccc(/C(=N/O)Nc3ccc(F)c(Cl)c3)c2[nH]1` [Example 235, N-(3-chloro-4-fluorophenyl)-N′-hydroxy-2-((2-(2-oxopyrrolidin-1-yl)ethyl)amino)-1H-imidazo[4,5-b]pyridine-7-carboximidamide], the EC50 was determined as 4820 nM.

The compound `O/N=C(\Nc1ccc(F)c(Cl)c1)c1ccnc2nc(-c3cccnc3)[nH]c12` [Example 147, N-(3-Chloro-4-fluorophenyl)-N′-hydroxy-2-(pyridin-3-yl)-1H-imidazo[4,5-b]pyridine-7-carboximidamide] came in with an EC50 of 1930 nM.

`CN1CCOCC1CNc1nc2nccc(/C(=N/O)Nc3ccc(F)c(Cl)c3)c2[nH]1` (stereo not shown) [Example 282, N-(3-chloro-4-fluorophenyl)-N′-hydroxy-2-(((4-methylmorpholin-3-yl)methyl)amino)-1H-imidazo[4,5-b]pyridine-7-carboximidamide] came in with an EC50 of more than 10000 nM.

As for `O/N=C(\Nc1ccc(F)c(Cl)c1)c1ccc(Br)c2nc[nH]c12` [Example 12, 4-Bromo-N-(3-chloro-4-fluorophenyl)-N′-hydroxy-1H-benzo[d]imidazole-7-carboximidamide], the EC50 was 660 nM.

Consider `COCCN(CCNc1nc2nccc(/C(=N/O)Nc3ccc(F)c(Cl)c3)c2[nH]1)C1CC1` [Example 232, N-(3-chloro-4-fluorophenyl)-2-((2-(cyclopropyl(2-methoxyethyl)amino)ethyl)amino)-N′-hydroxy-1H-imidazo[4,5-b]pyridine-7-carboximidamide], for which a half-maximal effect (EC50) was put at 460 nM.

`CN(C)CCNc1nc2c(F)ccc(/C(=N/O)Nc3ccc(F)c(Cl)c3)c2[nH]1` [Example 201, N-(3-Chloro-4-fluorophenyl)-2-[2-(dimethylamino)ethylamino]-7-fluoro-N′-hydroxy-3H-benzimidazole-4-carboximidamide] had an EC50 of 428 nM.

`O/N=C(\Nc1ccc(F)c(Cl)c1)c1ccnc2nc(NC3CC(F)(F)C3)[nH]c12` [Example 162, N-(3-Chloro-4-fluorophenyl)-2-((3,3-difluorocyclobutyl)amino)-N′-hydroxy-1H-imidazo[4,5-b]pyridine-7-carboximidamide]: a half-maximal effect (EC50) was put at 4020 nM.

Compound `O/N=C(\Nc1cc(Cl)ccc1F)c1ccnc2nc[nH]c12` [Example 60, N-(5-Chloro-2-fluorophenyl)-N′-hydroxy-1H-imidazo[4,5-b]pyridine-7-carboximidamide] returned an EC50 of 322 nM.

Compound `CC(=O)NCc1nc2nccc(/C(=N/O)Nc3ccc(F)c(Cl)c3)c2[nH]1` [Example 145, N-((7-(N-(3-Chloro-4-fluorophenyl)-N′-hydroxycarbamimidoyl)-1H-imidazo[4,5-b]pyridin-2-yl)methyl)acetamide] had an EC50 of 9760 nM.

For the compound `O/N=C(\Nc1cccc(Cl)c1)c1cc(F)c(F)c2nc(CNCC3CC3)[nH]c12` [Example 25, N-(3-Chlorophenyl)-2-(((cyclopropylmethyl)amino)methyl)-4,5-difluoro-N′-hydroxy-1H-benzo[d]imidazole-7-carboximidamide], the response was half-maximal at 1460 nM (EC50).

Still in this assay, the particulars now being: HeLa cells, IFNγ-induced IDO1, kynurenine in supernatant, 48 hour incubation; geometric mean of a minimum of four determinations.
`OCC1CCCCN1CCNc1nc2c(F)c(F)cc(/C(=N/O)Nc3ccc(F)c(Cl)c3)c2[nH]1` (stereo not shown) [Example 489, N-(3-chloro-4-fluorophenyl)-4,5-difluoro-N′-hydroxy-2-((2-(2-(hydroxymethyl)piperidin-1-yl)ethyl)amino)-1H-benzo[d]imidazole-7-carboximidamide] registered an EC50 of 289 nM.

Turning to `COC1CN(CCNc2nc3c(F)c(F)cc(/C(=N/O)Nc4ccc(F)c(Cl)c4)c3[nH]2)C1` [Example 456, N-(3-chloro-4-fluorophenyl)-4,5-difluoro-N′-hydroxy-2-((2-(3-methoxyazetidin-1-yl)ethyl)amino)-1H-benzo[d]imidazole-7-carboximidamide], the EC50 came to 274 nM.

As to `CN(C)CCCNc1nc2c(F)ccc(/C(=N/O)Nc3ccc(F)c(Cl)c3)c2[nH]1` [Example 388, N-(3-chloro-4-fluorophenyl)-2-((3-(dimethylamino)propyl)amino)-4-fluoro-N′-hydroxy-1H-benzo[d]imidazole-7-carboximidamide], the midpoint of the response, the EC50, lay at 939 nM.

Compound `CN(C)[C@@H]1CCC[C@H]1Nc1nc2c(F)c(F)cc(/C(=N/O)Nc3ccc(F)c(Cl)c3)c2[nH]1` [Example 486, N-(3-chloro-4-fluorophenyl)-2-(((1R,2R)-2-(dimethylamino)cyclopentyl)amino)-4,5-difluoro-N′-hydroxy-1H-benzo[d]imidazole-7-carboximidamide] displayed an EC50 of 284 nM.

`O/N=C(\Nc1ccc(F)c(Cl)c1)c1cc(F)c(F)c2nc(NCc3ncccn3)[nH]c12` [Example 350, N-(3-chloro-4-fluorophenyl)-4,5-difluoro-N′-hydroxy-2-((pyrimidin-2-ylmethyl)amino)-1H-benzo[d]imidazole-7-carboximidamide] gave an EC50 of 7030 nM.

The compound `CN(C)CCCCNc1nc2c(F)c(F)cc(/C(=N/O)Nc3ccc(F)c(Cl)c3)c2[nH]1` [Example 303, N-(3-chloro-4-fluorophenyl)-2-((4-(dimethylamino)butyl)amino)-4,5-difluoro-N′-hydroxy-1H-benzo[d]imidazole-7-carboximidamide] gave an EC50 of 2930 nM.

Compound `CN(C)CCNc1nc2c(F)c(F)cc(/C(=N/O)Nc3cccc(Br)c3)c2[nH]1` [Example 430, N-(3-bromophenyl)-2-((2-(dimethylamino)ethyl)amino)-4,5-difluoro-N′-hydroxy-1H-benzo[d]imidazole-7-carboximidamide] returned an EC50 of 180 nM.

The compound `O/N=C(\Nc1ccc(F)c(Cl)c1)c1ccc(F)c2nc(NCCN3CCCC3)[nH]c12` [Example 376, N-(3-chloro-4-fluorophenyl)-4-fluoro-N′-hydroxy-2-((2-(pyrrolidin-1-yl)ethyl)amino)-1H-benzo[d]imidazole-7-carboximidamide] showed an EC50 of 1260 nM.

`CCN(CCNc1nc2nccc(/C(=N/O)Nc3ccc(F)c(Cl)c3)c2[nH]1)C1CC1` [Example 403, N-(3-chloro-4-fluorophenyl)-2-((2-(cyclopropyl(ethyl)amino)ethyl)amino)-N′-hydroxy-1H-imidazo[4,5-b]pyridine-7-carboximidamide] came in with an EC50 of 192 nM.
